Assay results reported in ChEMBL document CHEMBL4819062, “Novel iodinated quinazolinones bearing sulfonamide as new scaffold targeting radiation induced oxidative stress” (Bioorg Med Chem Lett, 2021).

Key:
[1] = target: T1, Nuclear factor erythroid 2-related factor 2 (Mus musculus) (UniProt Q60795); test: Activation of Nrf2 in mouse Hepa1c1c7 cells assessed as increase in NQO1 activity at 5 uM; assay type: cell-based; details: filed as activator
T1 sequence (whole entry): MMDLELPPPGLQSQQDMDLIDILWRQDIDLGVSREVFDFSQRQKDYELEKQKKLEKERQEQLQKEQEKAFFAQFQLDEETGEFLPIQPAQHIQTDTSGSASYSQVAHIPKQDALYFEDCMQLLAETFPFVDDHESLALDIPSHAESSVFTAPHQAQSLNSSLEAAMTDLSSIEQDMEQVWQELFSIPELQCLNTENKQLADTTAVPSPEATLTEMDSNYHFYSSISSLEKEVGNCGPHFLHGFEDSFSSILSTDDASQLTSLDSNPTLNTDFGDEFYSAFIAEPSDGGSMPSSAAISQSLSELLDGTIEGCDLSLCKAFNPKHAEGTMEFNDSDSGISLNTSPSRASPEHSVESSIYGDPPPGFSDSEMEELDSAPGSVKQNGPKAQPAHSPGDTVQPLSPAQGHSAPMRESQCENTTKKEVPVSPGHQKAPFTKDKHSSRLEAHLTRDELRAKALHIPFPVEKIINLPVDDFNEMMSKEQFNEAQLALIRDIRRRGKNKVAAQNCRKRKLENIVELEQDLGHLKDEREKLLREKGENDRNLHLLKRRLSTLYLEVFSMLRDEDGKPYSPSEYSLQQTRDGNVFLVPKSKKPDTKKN

[2] = target: T1, Nuclear factor erythroid 2-related factor 2 (Mus musculus); test: Activation of Nrf2 in mouse Hepa1c1c7 cells assessed as increase in NQO1 activity at 10 uM; assay type: cell-based; details: filed as activator
[3] = target: T1, Nuclear factor erythroid 2-related factor 2 (Mus musculus); test: Activation of Nrf2 in mouse Hepa1c1c7 cells assessed as increase in NQO1 activity at 1.25 uM; assay type: cell-based; details: filed as activator
[4] = target: T1, Nuclear factor erythroid 2-related factor 2 (Mus musculus); test: Activation of Nrf2 in mouse Hepa1c1c7 cells assessed as increase in NQO1 activity at 2.5 uM; assay type: cell-based; details: filed as activator
[5] = target: T1, Nuclear factor erythroid 2-related factor 2 (Mus musculus); test: Activation of Nrf2 in mouse Hepa1c1c7 cells assessed as concentration required to double induction to increase in NQO1 activity; assay type: cell-based; details: filed as activator
[6] = Antioxidant activity assessed as DPPH radical scavenging activity; assay type: functional
[7] = target: T1, Nuclear factor erythroid 2-related factor 2 (Mus musculus); test: Activation of Nrf2 in mouse Hepa1c1c7 cells assessed as increase in NQO1 activity at 40 uM; assay type: cell-based; details: filed as activator
[8] = target: T1, Nuclear factor erythroid 2-related factor 2 (Mus musculus); test: Activation of Nrf2 in mouse Hepa1c1c7 cells assessed as increase in NQO1 activity at 0.625 uM; assay type: cell-based; details: filed as activator
[9] = target: T1, Nuclear factor erythroid 2-related factor 2 (Mus musculus); test: Activation of Nrf2 in mouse Hepa1c1c7 cells assessed as increase in NQO1 activity at 20 uM; assay type: cell-based; details: filed as activator
[10] = target: T1, Nuclear factor erythroid 2-related factor 2 (Mus musculus); test: Activation of Nrf2 in mouse Hepa1c1c7 cells assessed as increase in NQO1 activity at 0.313 uM; assay type: cell-based; details: filed as activator
[11] = target: T1, Nuclear factor erythroid 2-related factor 2 (Mus musculus); test: Activation of Nrf2 in mouse Hepa1c1c7 cells assessed as increase in NQO1 activity at 3.125 uM; assay type: cell-based; details: filed as activator
[12] = target: T1, Nuclear factor erythroid 2-related factor 2 (Mus musculus); test: Activation of Nrf2 in mouse Hepa1c1c7 cells assessed as increase in NQO1 activity at 25 uM; assay type: cell-based; details: filed as activator
[13] = target: T1, Nuclear factor erythroid 2-related factor 2 (Mus musculus); test: Activation of Nrf2 in mouse Hepa1c1c7 cells assessed as increase in NQO1 activity at 1.6 uM; assay type: cell-based; details: filed as activator
[14] = target: T1, Nuclear factor erythroid 2-related factor 2 (Mus musculus); test: Activation of Nrf2 in mouse Hepa1c1c7 cells assessed as increase in NQO1 activity at 6.25 uM; assay type: cell-based; details: filed as activator
[15] = target: T1, Nuclear factor erythroid 2-related factor 2 (Mus musculus); test: Activation of Nrf2 in mouse Hepa1c1c7 cells assessed as increase in NQO1 activity at 0.4 uM; assay type: cell-based; details: filed as activator
[16] = target: T1, Nuclear factor erythroid 2-related factor 2 (Mus musculus); test: Activation of Nrf2 in mouse Hepa1c1c7 cells assessed as increase in NQO1 activity at 0.8 uM; assay type: cell-based; details: filed as activator
[17] = target: T1, Nuclear factor erythroid 2-related factor 2 (Mus musculus); test: Activation of Nrf2 in mouse Hepa1c1c7 cells assessed as increase in NQO1 activity at 12.5 uM; assay type: cell-based; details: filed as activator
[18] = target: T1, Nuclear factor erythroid 2-related factor 2 (Mus musculus); test: Activation of Nrf2 in mouse Hepa1c1c7 cells assessed as increase in NQO1 activity at 50 uM; assay type: cell-based; details: filed as activator
[19] = target: T1, Nuclear factor erythroid 2-related factor 2 (Mus musculus); test: Activation of Nrf2 in mouse Hepa1c1c7 cells assessed as increase in NQO1 activity at 0.2 uM; assay type: cell-based; details: filed as activator
[20] = target: T1, Nuclear factor erythroid 2-related factor 2 (Mus musculus); test: Activation of Nrf2 in mouse Hepa1c1c7 cells assessed as increase in NQO1 activity at 7.5 uM; assay type: cell-based; details: filed as activator
[21] = target: T1, Nuclear factor erythroid 2-related factor 2 (Mus musculus); test: Activation of Nrf2 in mouse Hepa1c1c7 cells assessed as increase in NQO1 activity at 0.5 uM; assay type: cell-based; details: filed as activator
[22] = target: T1, Nuclear factor erythroid 2-related factor 2 (Mus musculus); test: Activation of Nrf2 in mouse Hepa1c1c7 cells assessed as increase in NQO1 activity at 30 uM; assay type: cell-based; details: filed as activator
[23] = target: T1, Nuclear factor erythroid 2-related factor 2 (Mus musculus); test: Activation of Nrf2 in mouse Hepa1c1c7 cells assessed as increase in NQO1 activity at 0.9 uM; assay type: cell-based; details: filed as activator
[24] = target: T1, Nuclear factor erythroid 2-related factor 2 (Mus musculus); test: Activation of Nrf2 in mouse Hepa1c1c7 cells assessed as increase in NQO1 activity at 1.9 uM; assay type: cell-based; details: filed as activator
[25] = target: T1, Nuclear factor erythroid 2-related factor 2 (Mus musculus); test: Activation of Nrf2 in mouse Hepa1c1c7 cells assessed as increase in NQO1 activity at 3.75 uM; assay type: cell-based; details: filed as activator
[26] = target: T1, Nuclear factor erythroid 2-related factor 2 (Mus musculus); test: Activation of Nrf2 in mouse Hepa1c1c7 cells assessed as increase in NQO1 activity at 15 uM; assay type: cell-based; details: filed as activator

NS(=O)(=O)c1ccc(-n2c(SCC(=O)Nc3ccc(Br)cc3)nc3c(I)cc(I)cc3c2=O)cc1
Activity [1]: 1.02
Activity [2]: 1.15
Activity [3]: 0.99
Activity [4]: 0.94
Activity [5]: Dose-Dependent Effect
CD [5]: 40 µM
IC50 [6]: 49.3 µM
Activity [7]: 1.93
Activity [8]: 1.01
Activity [9]: 1.42
Activity [10]: 1.02

NS(=O)(=O)c1ccc(-n2c(SCC(=O)Nc3ccc(F)cc3)nc3c(I)cc(I)cc3c2=O)cc1
Activity [11]: 0.99
Activity [12]: 1.13
Activity [13]: 0.99
IC50 [6]: 158 µM
Activity [14]: 1
Activity [15]: 0.98
Activity [16]: 1
Activity [17]: 1.06
Activity [18]: 1.19

O=C1O[C@H]([C@@H](O)CO)C(O)=C1O [ASCORBIC ACID]
IC50 [6]: 128 µM

NS(=O)(=O)c1ccc(-n2c(SCC(=O)Nc3cccc(F)c3)nc3c(I)cc(I)cc3c2=O)cc1
Activity [19]: 1.01
IC50 [6]: 59.4 µM
Activity [20]: 1.21
Activity [21]: 1.04
Activity [22]: 1.47
Activity [23]: 1.07
Activity [24]: 1.06
Activity [25]: 1.1
Activity [26]: 1.31
